{"source": "patent EP2832347B1", "about": "“Method for identifying patchouli odorant materials” (Takasago International Corporation, priority 2013, dated 2015)", "key": {"[1]": {"molecular_target": "T1, OR7D4 (Homo sapiens, UniProt Q8NG98)", "T1 construct": "expressed in transfected cells; host or cells: HEKOlf (HEK293 stably expressing human Galpha-olf and bovine CNGA2)", "T1 sequence (Q8NG98 1-312)": "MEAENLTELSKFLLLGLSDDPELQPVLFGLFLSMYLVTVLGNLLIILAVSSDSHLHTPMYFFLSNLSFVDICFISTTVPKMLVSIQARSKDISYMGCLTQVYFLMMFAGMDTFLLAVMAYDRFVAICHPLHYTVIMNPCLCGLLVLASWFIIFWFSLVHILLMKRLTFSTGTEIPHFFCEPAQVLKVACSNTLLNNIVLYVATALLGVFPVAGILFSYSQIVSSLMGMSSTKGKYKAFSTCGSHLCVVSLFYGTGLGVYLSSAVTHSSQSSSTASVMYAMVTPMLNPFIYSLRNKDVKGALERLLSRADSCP", "experiment": "CRE-luciferase reporter assay, positive control receptor OR7D4", "assay_type": "cell-based", "details": "10 µM", "protocol": "(§1) The experiments were performed using a HEK293 cell line (deposited at the ATCC under accession n° CRL-1573) stably expressing the Gαolf G-protein and the cyclic nucleotide gated ion channel A2 subunit (CNGA2) (herein called HEKOlf). As described by Shirokova et al., 2005, the human Gαolf cDNA was cloned into the mammalian expression vector pPuro and cDNA for the bovine cyclic nucleotide gated ion channel A2 (CNGA2) subunit was cloned into the mammalian expression vector pcDNA3. Both constructs were transfected using Lipofectamine2000 (Invitrogen) following the manufacturer's instructions. Cellular clones stably expressing Gαolf and CNGA2 were obtained by antibiotic selection with 0.5µg/ml Puromycin and 200µg/ml Geneticin.\nAll transient transfections were performed with Lipofectamine 2000 (Invitrogen) according to the manufacturer's protocol. […]\n(§2) In this assay, the interaction of an odorant with its cognate olfactory receptor leads to the activation of the human Gαolf G-protein. […] The cells were then transferred into an automated fluorometric imaging plate reader (FLIPR^TETRA, Molecular Devices). […]\n(§3) The data obtained from different well replicates were analyzed with Excel, ScreenWorks, and SigmaPlot 10. […] The mean and standard deviation of the resulting fold of change values were calculated and plotted in vertical bar charts or concentration-response curves fitted by the SigmaPlot 10 software. […]"}, "[2]": {"tested_on": "65 human olfactory receptors", "experiment": "Screening against the set of 65 human olfactory receptors (CRE-luciferase)", "assay_type": "cell-based", "details": "10 µM; including negative control receptor hTAS2R16", "protocol": "as §1, with “Geneticin. […]” for “Geneticin.”\nas §2, §3"}}, "data": [{"smiles": "C[C@]12CCC(=O)C[C@@H]1CC[C@@H]1[C@@H]2CC[C@]2(C)C=CC[C@@H]12", "note": "[androstenone]", "values": [{"measurement": "activation of OR7D4", "setting": "[1]", "value": "robustly activated"}, {"measurement": "response of the 65 olfactory receptors tested", "setting": "[2]", "value": "did not respond"}]}]}
